# According to patent EP4417602A1, “SUBSTITUTED PYRAZOLE CARBOXAMIDES, SALTS THEREOF AND THEIR USE AS HERBICIDALLY ACTIVE SUBSTANCES” (Bayer AG, priority 2023, dated 2024):
# Test system: MATIN
# Assay: A. Herbicidal pre-emergence action on harmful plants (Tables A)
# Type: in vivo, Matricaria inodora
# Settings: application rate 320 g/ha; visual grading after ca. 3 weeks vs untreated controls; 100% = plants have died off, 0% = as control plants
# Method in brief: (§1)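 Values are visual percent damage relative to untreated controls, scored ca. 3 weeks after the compound was sprayed on the covering soil of sown pots (sandy loam) at rates up to 1280 g/ha, formulated as WP or EC with 0.5% additive.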
row,Compound,pre-emergence activity against MATIN [%]
1,COCc1nn(C)cc1C(=O)N1CCCC1Cc1ccccc1F (racemic) [Example I-002],90
2,C=C(c1ccccc1F)C1CCCN1C(=O)c1cn(C)nc1COC (racemic) [Example I-023],90

# Same assay, conditions: application rate 1280 g/ha; visual grading after ca. 3 weeks vs untreated controls; 100% = plants have died off, 0% = as control plants
row,Compound,pre-emergence activity against MATIN [%]
1,COCc1nn(C)cc1C(=O)N1CCCC1Cc1ccccc1F (racemic) [Example I-002],90
2,C=C(c1ccccc1F)C1CCCN1C(=O)c1cn(C)nc1COC (racemic) [Example I-023],90

# Test system: STEME
# Assay: as above
# Type: in vivo, Stellaria media
# Settings: application rate 320 g/ha; visual grading after ca. 3 weeks vs untreated controls; 100% = plants have died off, 0% = as control plants
# Method in brief: as §1
row,Compound,pre-emergence activity against STEME [%]
1,C=C(c1ccccc1F)C1CCCN1C(=O)c1cn(C)nc1COC (racemic) [Example I-023],90

# Same assay, conditions: application rate 1280 g/ha; visual grading after ca. 3 weeks vs untreated controls; 100% = plants have died off, 0% = as control plants
row,Compound,pre-emergence activity against STEME [%]
1,COCc1nn(C)cc1C(=O)N1CCCC1Cc1ccccc1F (racemic) [Example I-002],90
2,C=C(c1ccccc1F)C1CCCN1C(=O)c1cn(C)nc1COC (racemic) [Example I-023],90

# Test system: ZEAMX
# Assay: F. Post-emergence effects on crop plants (Tables F)
# Type: in vivo, Zea mays
# Settings: application rate 80 g/ha, crop plant
# Method in brief: (§2)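 Plants were grown in sandy loam in a greenhouse and sprayed post-emergence at the single-leaf stage, 2–3 weeks after sowing. Visual damage was scored after ca. 3 weeks against untreated controls (0% = as control, 100% = dead).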
row,Compound,post-emergence activity against ZEAMX in % [%]
1,COCc1nn(C)cc1C(=O)N1CCCC1Cc1ccccc1F (racemic) [Example I-002],0
2,C=C(c1ccccc1F)C1CCCN1C(=O)c1cn(C)nc1COC (racemic) [Example I-023],0

# Same assay, conditions: application rate 320 g/ha, crop plant
row,Compound,post-emergence activity against ZEAMX in % [%]
1,COCc1nn(C)cc1C(=O)N1CCCC1Cc1ccccc1F (racemic) [Example I-002],0
2,C=C(c1ccccc1F)C1CCCN1C(=O)c1cn(C)nc1COC (racemic) [Example I-023],20

# Test system: LOLRI
# Assay: C. Herbicidal pre-emergence action, weed and crop plants (Tables C)
# Type: in vivo, Lolium rigidum
# Settings: application rate 320 g/ha; Table C7a
# Excerpt: (§3) Seeds of mono- and dicotyledonous weed plants and crop plants were sown, in plastic or organic planting pots, in sandy loam and covered with soil. The compounds according to the invention, formulated in the form of wettable powders (WP) or as emulsifiable concentrates (EC), were applied to the surface of the covering soil as aqueous suspension or emulsion, with the addition of 0.5% of an additive, at an application rate of 6001 of water/ha (converted). Following treatment, the pots were placed in a greenhouse and kept under optimum growth conditions for the test plants. The visual grading of the damage to the test plants was carried out after ca. 3 weeks in comparison to untreated controls (herbicidal effect in percent (%): 100% effect = plants have died off, 0% effect = as control plants). Tables C1 to C12 below show the effects of selected compounds of the general formula (I) according to table 1 on various harmful plants and an application rate corresponding to 320 g/ha or below obtained by the experimental procedure mentioned above. Table C1: pre-emergence activity at 320g/ha against KCHSC in %
row,Compound,pre-emergence activity against LOLRI [%]
1,COCc1nn(C)cc1C(=O)N1CCCC1Cc1ccccc1F (racemic) [Example I-002],90
2,C=C(c1ccccc1F)C1CCCN1C(=O)c1cn(C)nc1COC (racemic) [Example I-023],100

# Test system: POAAN
# Assay: A. Herbicidal pre-emergence action on harmful plants (Tables A)
# Type: in vivo, Poa annua
# Settings: application rate 80 g/ha; Table A7c
# Method in brief: as §1
row,Compound,pre-emergence activity against POAAN [%]
1,COCc1nn(C)cc1C(=O)N1CCCC1Cc1ccccc1F (racemic) [Example I-002],100
2,C=C(c1ccccc1F)C1CCCN1C(=O)c1cn(C)nc1COC (racemic) [Example I-023],100

# Same assay, conditions: application rate 320 g/ha; Table A7b
row,Compound,pre-emergence activity against POAAN [%]
1,COCc1nn(C)cc1C(=O)N1CCCC1Cc1ccccc1F (racemic) [Example I-002],100
2,C=C(c1ccccc1F)C1CCCN1C(=O)c1cn(C)nc1COC (racemic) [Example I-023],100

# Same assay, conditions: application rate 1280 g/ha; visual grading after ca. 3 weeks vs untreated controls; 100% = plants have died off, 0% = as control plants
row,Compound,pre-emergence activity against POAAN [%]
1,COCc1nn(C)cc1C(=O)N1CCCC1Cc1ccccc1F (racemic) [Example I-002],100
2,C=C(c1ccccc1F)C1CCCN1C(=O)c1cn(C)nc1COC (racemic) [Example I-023],100

# Test system: DIGSA
# Assay: as above
# Type: in vivo, Digitaria sanguinalis
# Settings: application rate 320 g/ha; Table A12b
# Method in brief: as §1
row,Compound,pre-emergence activity against DIGSA [%]
1,C=C(c1ccccc1F)C1CCCN1C(=O)c1cn(C)nc1COC (racemic) [Example I-023],90

# Same assay, conditions: application rate 1280 g/ha; Table A12a
row,Compound,pre-emergence activity against DIGSA [%]
1,C=C(c1ccccc1F)C1CCCN1C(=O)c1cn(C)nc1COC (racemic) [Example I-023],90

# Test system: GLXMA
# Assay: D. Pre-emergence effects on crop plants (Tables D)
# Type: in vivo, Glycine max
# Settings: crop plant; application rate 80 g/ha; Table D4b
# Method in brief: (§4)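 Seeds sown in sandy loam and covered; WP or EC formulations sprayed onto the soil surface as aqueous suspension/emulsion with 0.5% additive, at 320 g/ha or below. Greenhouse-grown; visual damage scored after ca. 3 weeks against untreated controls (0% = as control, 100% = plants dead).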
row,Compound,pre-emergence activity against GLXMA [%]
1,C=C(c1ccccc1F)C1CCCN1C(=O)c1cn(C)nc1COC (racemic) [Example I-023],0

# Same assay, conditions: crop plant; application rate 320 g/ha; Table D4a
row,Compound,pre-emergence activity against GLXMA [%]
1,C=C(c1ccccc1F)C1CCCN1C(=O)c1cn(C)nc1COC (racemic) [Example I-023],0

# Test system: ECHCG
# Assay: A. Herbicidal pre-emergence action on harmful plants (Tables A)
# Type: in vivo, Echinochloa crus-galli
# Settings: application rate 80 g/ha; visual grading after ca. 3 weeks vs untreated controls; 100% = plants have died off, 0% = as control plants
# Method in brief: as §1
row,Compound,pre-emergence activity against ECHCG [%]
1,COCc1nn(C)cc1C(=O)N1CCCC1Cc1ccccc1F (racemic) [Example I-002],90

# Same assay, conditions: application rate 320 g/ha; visual grading after ca. 3 weeks vs untreated controls; 100% = plants have died off, 0% = as control plants
row,Compound,pre-emergence activity against ECHCG [%]
1,COCc1nn(C)cc1C(=O)N1CCCC1Cc1ccccc1F (racemic) [Example I-002],100
2,C=C(c1ccccc1F)C1CCCN1C(=O)c1cn(C)nc1COC (racemic) [Example I-023],90

# Same assay, conditions: application rate 1280 g/ha; visual grading after ca. 3 weeks vs untreated controls; 100% = plants have died off, 0% = as control plants
row,Compound,pre-emergence activity against ECHCG [%]
1,COCc1nn(C)cc1C(=O)N1CCCC1Cc1ccccc1F (racemic) [Example I-002],100
2,C=C(c1ccccc1F)C1CCCN1C(=O)c1cn(C)nc1COC (racemic) [Example I-023],100

# Test system: GLXMA
# Assay: F. Post-emergence effects on crop plants (Tables F)
# Type: in vivo, Glycine max
# Settings: application rate 80 g/ha, crop plant
# Method in brief: as §2
row,Compound,post-emergence activity against GLXMA in % [%]
1,COCc1nn(C)cc1C(=O)N1CCCC1Cc1ccccc1F (racemic) [Example I-002],20

# Test system: DIGSA
# Assay: C. Herbicidal pre-emergence action, weed and crop plants (Tables C)
# Type: in vivo, Digitaria sanguinalis
# Settings: application rate 80 g/ha; Table C5b
# Excerpt: as §3
row,Compound,pre-emergence activity against DIGSA [%]
1,COCc1nn(C)cc1C(=O)N1CCCC1Cc1ccccc1F (racemic) [Example I-002],90
2,C=C(c1ccccc1F)C1CCCN1C(=O)c1cn(C)nc1COC (racemic) [Example I-023],90

# Same assay, conditions: application rate 320 g/ha; Table C5a
row,Compound,pre-emergence activity against DIGSA [%]
1,COCc1nn(C)cc1C(=O)N1CCCC1Cc1ccccc1F (racemic) [Example I-002],90
2,C=C(c1ccccc1F)C1CCCN1C(=O)c1cn(C)nc1COC (racemic) [Example I-023],100

# Test system: BRSNW
# Assay: D. Pre-emergence effects on crop plants (Tables D)
# Type: in vivo, Brassica napus
# Settings: application rate 80 g/ha, crop plant
# Method in brief: as §4
row,Compound,pre-emergence activity against BRSNW in % [%]
1,COCc1nn(C)cc1C(=O)N1CCCC1Cc1ccccc1F (racemic) [Example I-002],0
2,C=C(c1ccccc1F)C1CCCN1C(=O)c1cn(C)nc1COC (racemic) [Example I-023],0

# Same assay, conditions: application rate 320 g/ha, crop plant
row,Compound,pre-emergence activity against BRSNW in % [%]
1,COCc1nn(C)cc1C(=O)N1CCCC1Cc1ccccc1F (racemic) [Example I-002],0
2,C=C(c1ccccc1F)C1CCCN1C(=O)c1cn(C)nc1COC (racemic) [Example I-023],0

# Test system: SETVI
# Assay: C. Herbicidal pre-emergence action, weed and crop plants (Tables C)
# Type: in vivo, Setaria viridis
# Settings: application rate 320 g/ha; Table C10
# Excerpt: as §3
row,Compound,pre-emergence activity against SETVI [%]
1,COCc1nn(C)cc1C(=O)N1CCCC1Cc1ccccc1F (racemic) [Example I-002],80
2,C=C(c1ccccc1F)C1CCCN1C(=O)c1cn(C)nc1COC (racemic) [Example I-023],90

# Test system: ECHCG
# Assay: as above
# Type: in vivo, Echinochloa crus-galli
# Settings: application rate 320 g/ha; Table C6a
# Excerpt: as §3
row,Compound,pre-emergence activity against ECHCG [%]
1,COCc1nn(C)cc1C(=O)N1CCCC1Cc1ccccc1F (racemic) [Example I-002],90
2,C=C(c1ccccc1F)C1CCCN1C(=O)c1cn(C)nc1COC (racemic) [Example I-023],90
